Measured values published in patent US9169254B2, “Spiroimidazolone derivative” (Chugai Seiyaku Kabushiki Kaisha, priority 2009, dated 2015).

Molecular target: T1, human PTH1 receptor (Homo sapiens, UniProt Q03431)
T1 sequence (Q03431 27-593): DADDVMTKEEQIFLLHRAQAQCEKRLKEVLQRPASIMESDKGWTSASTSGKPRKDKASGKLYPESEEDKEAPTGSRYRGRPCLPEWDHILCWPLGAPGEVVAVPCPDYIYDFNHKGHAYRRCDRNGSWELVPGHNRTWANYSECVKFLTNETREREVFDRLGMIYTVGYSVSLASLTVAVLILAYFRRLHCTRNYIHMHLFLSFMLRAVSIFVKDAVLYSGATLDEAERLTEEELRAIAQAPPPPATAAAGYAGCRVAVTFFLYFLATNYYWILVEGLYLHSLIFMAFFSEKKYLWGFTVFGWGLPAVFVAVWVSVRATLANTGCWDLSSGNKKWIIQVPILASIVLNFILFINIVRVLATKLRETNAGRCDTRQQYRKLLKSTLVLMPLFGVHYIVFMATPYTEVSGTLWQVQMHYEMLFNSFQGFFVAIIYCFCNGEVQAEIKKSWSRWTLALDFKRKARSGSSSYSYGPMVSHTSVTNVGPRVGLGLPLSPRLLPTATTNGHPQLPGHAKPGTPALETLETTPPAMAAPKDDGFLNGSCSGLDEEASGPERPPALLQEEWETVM
Assay: In vitro cAMP signal activity in HKRK-B7 cells (LLC-PK1 cells overexpressing the human PTH1 receptor)
Format: cell-based
Settings: HKRK-B7 cells; compound at 1×10^−3 M; cAMP produced as percentage of that produced by hPTH(1-34) at 100 nM

Structure (SMILES)	cAMP production activity (%)
Cc1ccc(NCCO)cc1/C=C/S(=O)(=O)N1CCC2(CC1)N=C(C1CCCCC1)NC2=O [Compound 199, 2-cyclohexyl-8-{(E)-2-[5-(2-hydroxy-ethylamino)-2-methyl-phenyl]-ethenesulfonyl}-1,3,8-triaza-spiro[4.5]dec-1-en-4-one]	46
Cc1cccc(NCCO)c1/C=C/S(=O)(=O)N1CCC2(CC1)N=C(C1CCCCC1)NC2=O [Compound 200, 2-cyclohexyl-8-{(E)-2-[2-(2-hydroxy-ethylamino)-6-methyl-phenyl]-ethenesulfonyl}-1,3,8-triaza-spiro[4.5]dec-1-en-4-one]	37
CN(C)C(=O)CNc1ccc(/C=C/S(=O)(=O)N2CCC3(CC2)N=C(C2CCCCC2)NC3=O)c(C(F)(F)F)c1 [Compound 201, 2-{4-[(E)-2-(2-cyclohexyl-4-oxo-1,3,8-triaza-spiro[4.5]dec-1-ene-8-sulfonyl)-vinyl]-3-trifluoromethyl-phenylamino}-N,N-dimethyl-acetamide]	56
CC1(C)OC[C@H](Cn2cc(F)c3c(/C=C/S(=O)(=O)N4CCC5(CC4)N=C(C4CCCCC4)NC5=O)cccc32)O1 [Compound 202, 2-cyclohexyl-8-{(E)-2-[1-((S)-2,2-dimethyl-[1,3]dioxolan-4-ylmethyl)-3-fluoro-1H-indol-4-yl]-ethenesulfonyl}-1,3,8-triaza-spiro[4.5]dec-1-en-4-one]	27
Cc1cc(C(=O)N2CC(F)(F)C(F)(F)C2)ccc1/C=C/S(=O)(=O)N1CCC2(CC1)N=C(C1CCCCC1)NC2=O [Compound 203, 2-cyclohexyl-8-{(E)-2-[2-methyl-4-(3,3,4,4-tetrafluoro-pyrrolidine-1-carbonyl)-phenyl]-ethenesulfonyl}-1,3,8-triaza-spiro[4.5]dec-1-en-4-one]	25
CC(=O)Nc1cc(C)c(/C=C/S(=O)(=O)N2CCC3(CC2)N=C(C2CCCCC2)NC3=O)c(C)c1 [Compound 204, N-{4-[(E)-2-(2-Cyclohexyl-4-oxo-1,3,8-triaza-spiro[4.5]dec-1-ene-8-sulfonyl)-vinyl]-3,5-dimethyl-phenyl}-acetamide]	110
CC(C)(C)OC(=O)NCc1ccc(/C=C/S(=O)(=O)N2CCC3(CC2)N=C(C2CCCCC2)NC3=O)c(C(F)(F)F)c1 [Compound 205, {4-[(E)-2-(2-cyclohexyl-4-oxo-1,3,8-triaza-spiro[4.5]dec-1-ene-8-sulfonyl)-vinyl]-3-trifluoromethyl-benzyl}-carbamic acid tert-butyl ester]	47
Cc1cc(OC[C@H](O)CO)cc(C)c1/C=C/S(=O)(=O)N1CCC2(CC1)N=C(C1CCCCC1)NC2=O [Compound 206, 2-cyclohexyl-8-{(E)-2-[4-((R)-2,3-dihydroxy-propoxy)-2,6-dimethyl-phenyl]-ethenesulfonyl}-1,3,8-triaza-spiro[4.5]dec-1-en-4-one]	70
Cc1cc(NCC2CNC(=O)O2)ccc1/C=C/S(=O)(=O)N1CCC2(CC1)N=C(C1CCCCC1)NC2=O (stereo not drawn) [Compound 207, 2-cyclohexyl-8-((E)-2-{2-methyl-4-[(2-oxo-oxazolidin-5-ylmethyl)-amino]-phenyl}-ethenesulfonyl)-1,3,8-triaza-spiro[4.5]dec-1-en-4-one]	36
CN(C)CCNC(=O)Cc1ccc(/C=C/S(=O)(=O)N2CCC3(CC2)N=C(C2CCCCC2)NC3=O)cc1 [Compound 208, 2-{4-[(E)-2-(2-cyclohexyl-4-oxo-1,3,8-triaza-spiro[4.5]dec-1-ene-8-sulfonyl)-vinyl]-phenyl}-N-(2-dimethylamino-ethyl)-acetamide]	22
CC1CCC(C2=NC3(CCN(S(=O)(=O)/C=C/c4cccc(C#N)c4)CC3)C(=O)N2)CC1 (stereo not drawn) [Compound 209, 3-{(E)-2-[2-(4-Methyl-cyclohexyl)-4-oxo-1,3,8-triaza-spiro[4.5]dec-1-ene-8-sulfonyl]-vinyl}-benzonitrile]	24
Cc1cc(OCCC(O)CO)ccc1/C=C/S(=O)(=O)N1CCC2(CC1)N=C(c1cccc(C(F)(F)F)c1)NC2=O (stereo not drawn) [Compound 210, 8-{(E)-2-[4-(3,4-Dihydroxy-butoxy)-2-methyl-phenyl]-ethenesulfonyl}-2-(3-trifluoromethyl-phenyl)-1,3,8-triaza-spiro[4.5]dec-1-en-4-one]	79
O=C1NC(c2cccc(C(F)(F)F)c2)=NC12CCN(S(=O)(=O)/C=C/c1ccc(NCCO)cc1C(F)(F)F)CC2 [Compound 211, 8-{(E)-2-[4-(2-hydroxy-ethylamino)-2-trifluoromethyl-phenyl]-ethenesulfonyl}-2-(3-trifluoromethyl-phenyl)-1,3,8-triaza-spiro[4.5]dec-1-en-4-one]	60
Cc1cc(C(=O)N2CCCC2)ccc1/C=C/S(=O)(=O)N1CCC2(CC1)N=C(c1cccc(C(F)(F)F)c1)NC2=O [Compound 212, 8-{(E)-2-[2-methyl-4-(pyrrolidine-1-carbonyl)-phenyl]-ethenesulfonyl}-2-(3-trifluoromethyl-phenyl)-1,3,8-triaza-spiro[4.5]dec-1-en-4-one]	59
Cc1cc(S(N)(=O)=O)ccc1/C=C/S(=O)(=O)N1CCC2(CC1)N=C(c1cccc(C(F)(F)F)c1)NC2=O [Compound 213, 3-methyl-4-{(E)-2-[4-oxo-2-(3-trifluoromethyl-phenyl)-1,3,8-triaza-spiro[4.5]dec-1-ene-8-sulfonyl]-vinyl}-benzenesulfonamide]	74
Cc1cc(C(=O)N(C)CCO)ccc1/C=C/S(=O)(=O)N1CCC2(CC1)N=C(c1cccc(C(F)(F)F)c1)NC2=O [Compound 214, N-(2-hydroxy-ethyl)-3,N-dimethyl-4-{(E)-2-[4-oxo-2-(3-trifluoromethyl-phenyl)-1,3,8-triaza-spiro[4.5]dec-1-ene-8-sulfonyl]-vinyl}-benzamide]	84
CC(=O)Nc1ccc(/C=C/S(=O)(=O)N2CCC3(CC2)N=C(c2cccc(C(F)(F)F)c2)NC3=O)c(C)c1 [Compound 215, N-(3-Methyl-4-{(E)-2-[4-oxo-2-(3-trifluoromethyl-phenyl)-1,3,8-triaza-spiro[4.5]dec-1-ene-8-sulfonyl]-vinyl}-phenyl)-acetamide]	81
Cc1cc(C(=O)N2CCN(C)CC2)ccc1/C=C/S(=O)(=O)N1CCC2(CC1)N=C(c1cccc(C(F)(F)F)c1)NC2=O [Compound 216, 8-{(E)-2-[2-methyl-4-(4-methyl-piperazine-1-carbonyl)-phenyl]-ethenesulfonyl}-2-(3-trifluoromethyl-phenyl)-1,3,8-triaza-spiro[4.5]dec-1-en-4-one]	84
Cc1cc(S(=O)(=O)NCC(F)(F)F)ccc1/C=C/S(=O)(=O)N1CCC2(CC1)N=C(c1cccc(C(F)(F)F)c1)NC2=O [Compound 217, 3-methyl-4-{(E)-2-[4-oxo-2-(3-trifluoromethyl-phenyl)-1,3,8-triaza-spiro[4.5]dec-1-ene-8-sulfonyl]-vinyl}-N-(2,2,2-trifluoro-ethyl)-benzenesulfonamide]	41
Cc1cc(S(=O)(=O)NCCN2CCOCC2)ccc1/C=C/S(=O)(=O)N1CCC2(CC1)N=C(c1cccc(C(F)(F)F)c1)NC2=O [Compound 218, 3-methyl-N-(2-morpholin-4-yl-ethyl)-4-{(E)-2-[4-oxo-2-(3-trifluoromethyl-phenyl)-1,3,8-triaza-spiro[4.5]dec-1-ene-8-sulfonyl]-vinyl}-benzenesulfonamide]	72
Cc1cc(S(=O)(=O)Nc2cccnc2)ccc1/C=C/S(=O)(=O)N1CCC2(CC1)N=C(c1cccc(C(F)(F)F)c1)NC2=O [Compound 219, 3-methyl-4-{(E)-2-[4-oxo-2-(3-trifluoromethyl-phenyl)-1,3,8-triaza-spiro[4.5]dec-1-ene-8-sulfonyl]-vinyl}-N-pyridin-3-yl-benzenesulfonamide]	60
Cc1cc(N2C[C@H](O)CC2=O)ccc1/C=C/S(=O)(=O)N1CCC2(CC1)N=C(c1cccc(C(F)(F)F)c1)NC2=O [Compound 220, 8-{(E)-2-[4-((R)-4-hydroxy-2-oxo-pyrrolidin-1-yl)-2-methyl-phenyl]-ethenesulfonyl}-2-(3-trifluoromethyl-phenyl)-1,3,8-triaza-spiro[4.5]dec-1-en-4-one]	80
Cc1cc(N2C[C@H](CO)OC2=O)ccc1/C=C/S(=O)(=O)N1CCC2(CC1)N=C(c1cccc(C(F)(F)F)c1)NC2=O [Compound 222, 8-{(E)-2-[4-((R)-5-hydroxymethyl-2-oxo-oxazolidin-3-yl)-2-methyl-phenyl]-ethenesulfonyl}-2-(3-trifluoromethyl-phenyl)-1,3,8-triaza-spiro[4.5]dec-1-en-4-one]	43
Cc1cc(S(=O)(=O)NCCCO)ccc1/C=C/S(=O)(=O)N1CCC2(CC1)N=C(c1cccc(OC(F)(F)F)c1)NC2=O [Compound 224, N-(3-Hydroxy-propyl)-3-methyl-4-{(E)-2-[4-oxo-2-(3-trifluoromethoxy-phenyl)-1,3,8-triaza-spiro[4.5]dec-1-ene-8-sulfonyl]-vinyl}-benzenesulfonamide]	54
